Data as given in patent publication US20150031739A1, “PANOBINOSTAT FOR USE IN THE TREATMENT OF HIV-1” (Aarhus Universitet, priority 2012, published 2015).

Columns and labels:
[1] = test system: HIV-1 expression in U1 cells; assay: HIV-1 activation from U1 cells (p24 gag ELISA); type: cell-based; conditions: 48 hours
Description: (§1) HIV-1 activation from U1 cells: U1 cells (obtained through the NIH AIDS Reagent Program) are seeded at 2*10^5/well in a 96-well format in 100 uL RPMI media supplemented with 10% heat inactivated Foetal Bovine Serum and 1% penicillin/streptomycin. HDACi and PMA as positive control is added at desired concentrations in 100 uL. Identical DMSO levels is used for untreated control. All stimulations are performed in triplicate. 48 hours later supernatant is harvested and left for inactivation in 1% Empegen for 1 hour. Levels of HIV-1 p24 gag levels is determined by ELISA as described by the manufacturer (Aalto Bioreagents, Dublin, Ireland).

[2] = test system: HIV-1 expression in ACH2 cells; assay: HIV-1 activation from ACH2 cells (p24 gag ELISA); type: cell-based; conditions: 48 hours
Description: as §1, with “ACH2” for “U1”, “1*10^5/well” for “2*10^5/well”, “Samples are diluted 1/500 and levels” for “Levels”, “gag” for “gag levels”

[3] = test system: latently infected cell lines (U1 and ACH2); assay: HIV-1 expression from latently infected cell lines, statements for both lines; type: cell-based
Description: as §1
as §1, with “ACH2” for “U1”, “1*10^5/well” for “2*10^5/well”, “Samples are diluted 1/500 and levels” for “Levels”, “gag” for “gag levels”

[4] = test system: CD69 expression in CD4+ T-cells; assay: Activation of primary T lymphocytes (CD69 expression, flow cytometry); type: cell-based, human; conditions: 16 hours
Description: Expression of the early activation marker CD69 was assessed by flow cytometry in 8 separate experiments with data from one representative experiment shown in figure.
Activation of primary T lymphocytes: PBMC's are purified using Ficoll Paque gradient centrifugation from fresh blood obtained from healthy donors. 5*10^5 cells are stimulated by different concentrations of HDACi in final volume of 500 uL RPMI media supplemented with 10% heat inactivated Foetal Bovine Serum and 1% penicillin/streptomycin. After 16 hours cells are harvested and washed once in PBS. Cells are stained with Live-dead near IR at a final concentration of 2 uM (Invitrogen, Denmark) for 30 min on ice. Cells are washed twice in PBS. Five uL Fc Block (Sigma, Denmark) at 10 mg/mL is added and cells are incubated 10 min on ice. Cells are subsequently stained with 5 uL CD4 PerCPCy5.5, 5 uL CD27 PE-Cy7, 7 uL CD45RA FITC, 20 uL CCR7 PE all (BD, USA) and 10 uL CD69 APC (BioLegend, USA) for 30 min on ice. Lastly, cells are washed once in PBS and resuspended in FACS flow buffer and stored on ice until analysis by flow cytometry.

Cytotoxicity of LBH589 = type: cell-based; conditions: up to 30 nM
histone H3 acetylation = assay: Histone H3 acetylation in PBMC's of patients during panobinostat administration; type: in vivo, human
Description: One million freshly isolated PBMC's harvested from CPT vacutainers (BD Bioscience, UK) were washed in ice-cold PBS with 1% FBS. Subsequently cells were fixed in 200 uL 1% paraformaldehyde for 15 min on ice and afterwards washed in PBS. […] Following a wash in FACS buffer (PBS/2% FBS), cells were blocked in PBS with 10% FBS for 20 min at RT. For each patient one sample was incubated for 1 hr at RT with either 5 uL primary anti-acetyl histone H3 antibody (Millipore, DK) or 5μ isotype control (final antibody concentration: 10 μg/m). Subsequently, cells were washed in FACS buffer and incubated with 5 uL secondary (Alexa-Flour 488 donkey anti-rabbit IgG from Life Technologies, DK) for 1 hr in the dark at RT (final antibody concentration: 6 μg/m). Lastly, cells were washed in FACS buffer, resuspended in PBS and analyzed on a FACS Canto II.

[5] = test system: cell-associated unspliced HIV RNA; assay: Cell associated unspliced Gag HIV RNA in CD4+ T cells of treated patients; type: in vivo, HIV-1
Description: RNA purified from 1 million CD4+ T cells was treated with DNAse and split in 4 portions. Preparation of cDNA was performed by Superscript III Reverse Transcriptase as described by the manufacturer using both Oligo dT and random hexamer priming (Life Technologies, DK). Each cDNA sample was assayed in duplicate in a semi-nested real-time PCR quantification yielding eight replicates for each patient sample.
First round amplification was carried out with primers 5′-[…]-3′ (SEQ ID NO: 1) and 5′-[…]-3′ (SEQ ID NO: 2) with AmpliTaq gold mastermix (Life Technologies, DK) for a limited 15 cycles and input of 5 uL cDNA.
PCR conditions were as follows: A denaturation step at 95° C. for 10 minutes followed by 15 cycles of 20 seconds at 94° C., 40 seconds at 55° C. and 40 seconds at 72° C. Second round real-time PCR was performed using SYBR green mastermix (Life Technologies, DK) and primers 5′-[…]-3′ (SEQ ID NO: 3) and 5′-[…]-3′ (SEQ ID NO: 4) on a Bio-Rad CFX96™ Real-time PCR Platform. PCR conditions were as follows: A denaturation step at 95° C. for 10 minutes followed by 45 cycles of 20 seconds at 94° C., 40 seconds at 55° C., 40 seconds at 72° C. Subsequently, a dissociation curve was obtained by heating from 65° C. to 95° C. with a 0.5° C. increment for 5 seconds. A serial diluted standard allow for relative quantification of HIV Gag RNA levels.

[6] = test system: HIV proviral DNA in CD4+ T cells; assay: Total HIV proviral DNA in purified CD4+ T cells of treated patients; type: in vivo, HIV-1
Description: DNA was isolated from 1×10^6 CD4+ T cells using AllPrep DNA/RNA Mini kit according to the manufacturer's specifications (Qiagen, Denmark). Cell equivalents were based on RNAseP amplification. The following primers were used to target human RNAseP 5′-[…]-3′ (forward) (SEQ ID NO: 5) and 5′-[…]-3′ (reverse) (SEQ ID NO: 6). Amplification reactions were carried out in duplicates with a primer concentration of 0.5 μM, 10 μL SsoFast™ EvaGreen® Supermix and 1 μL 100-fold diluted DNA as template in 20 μl total volume.
Using the RNAsePgenome copy number, sample DNA was diluted to 50,000 cell equivalents per PCR reaction. To determine the frequency of CD4+ T cells carrying HIV DNA, we prepared a standard curve obtained by serially diluted DNA from 8E5 cells (carrying one integrated provirus per genome) combined with DNA from HIV-negative PBMCs (305, 153, 76, 38, 19, 9 HIV DNA copies and 100,000 HIV negative cell equivalents per well). The following primers were used to target HIV-DNA: 5′-[…]-3′ (forward) (SEQ ID NO: 7) and 5′-[…]-3′ (reverse) (SEQ ID NO: 8).
The amplification reaction was carried out in triplicates with a primer concentration of 0.5 μM, 10 μL SsoFast™ EvaGreen® Supermix and 100,000 genomes as template in 20 μl total volume on a Bio-Rad CFX96™ Real-time PCR Platform. PCR conditions were as follows: A denaturation step at 95° C. followed by 45 cycles of 10 seconds at 95° C. and 25 seconds at 62° C. Subsequently a melt curve was obtained heating from 65° C. to 95° C. with a 0.5° C. increment for 5 seconds. Cycle cut off was set at 39 cycles. Amplification products were verified by dissociaton curve. Copy number of HIV DNA per 1×10^6 CD4+ T cells was calculated from the real-time PCR results.
From the HIV DNA standard curve we set a lower limit of quantification of 12 copies HIV DNA/10^6 CD4+ T cells.
Samples were drawn from two patients at Baseline (prior to initiation of panobinostat treatment) and after 4 weeks and 8 weeks cyclic panobinostat treatment 20 mg TIW every other week.

CD4+ T cells = assay: CD4+ T cell counts in blood during panobinostat treatment; type: in vivo, human; conditions: intermittent dosing over 51 days, 20 mg oral TIW every other week, HIV-1 patients on HAART
Description: Measurement of CD4+ T cell counts was performed by flow cytometry as part of routine diagnostics evaluation of HIV-1 patients.

[7] = 20 mg oral; cited from earlier work
latent viral reservoir = conditions: clinical study; effect could not be sustained in further studies; cited from earlier work
CXCR4 = conditions: CD4+ T-cells; cited from earlier work
CCR5 = conditions: monocytes; cited from earlier work

In the case of `O=C(CCCCCCC(=O)Nc1ccccc1)NO` [SAHA, suberoylanilide hydroxamic acid], the “fold increase in median p24 levels with reference to untreated cultures” value (from here on “fold increase in median p24 levels”) ([1]; 125 nM) is reported as 1.0 fold, the “fold increase in median p24 levels” value ([1]; 250 nM) is reported as 1.5 fold and the “fold increase in median p24 levels” value ([1]; 500 nM) is reported as 3.1 fold. For the same compound, the “fold increase in median p24 levels” value ([2]; 125 nM) was 1.4 fold, the “fold increase in median p24 levels” value ([2]; 250 nM) was 2.4 fold and the “fold increase in median p24 levels” value ([2]; 500 nM) was 6.9 fold.
In the case of `Cc1[nH]c2ccccc2c1CCNCc1ccc(/C=C/C(=O)NO)cc1` [LBH589, N-Hydroxy-3-[4-[2-(2-methyl-1H-indol-3-yl)ethylaminomethyl]phenyl]-2(E)-propenamide], the “rank order of induced HIV-1 expression” value ([3]; direct comparison at the concentration obtained with clinical use) is reported as “LBH589>ITF2357 and PXD101>SAHA”, the “rank order of potency when stimulating HIV-1 expression” value ([3]; latently infected cell lines) is reported as “LBH589>ITF2357 and PXD101>SAHA>VPA” and the “concentration range in which HIV-1 expression is induced” value ([3]; latently infected cell lines U1 and ACH2) is reported as 8 to 32 nM. The “concentration at which induction of CD69 expression occurred, compared with other HDACi” value ([4]; CD4+ T-cells) was “much lower concentrations of LBH589 than ITF2357, PXD101, and SAHA”, the “proportion of primary T-cells expressing the early activation marker CD69” value ([4]; PBMCs from healthy donors, increasing concentrations (2-31 nM), compared to untreated cells) was “increased” and the “CD69 expression in memory T-cell subsets” value ([4]; central memory T-cells) was “highest levels”. The cytotoxicity (Cytotoxicity of LBH589) was “No cytotoxicity above background”, the “average increase of histone H3 acetylation from baseline” value (histone H3 acetylation; day 4, eight patients, PBMC's, panobinostat 20 mg TIW every other week) was 267% and the “levels of histone acetylation” value (histone H3 acetylation; off-treatment weeks) was “dropped to near baseline levels”. For the same compound, the “cell-associated unspliced Gag HIV RNA” value ([5]; patient A, first off/on cycle analyzed, off treatment) was 178 Gag HIV RNA copies, the “cell-associated unspliced Gag HIV RNA” value ([5]; patient A, first off/on cycle analyzed, on treatment) was 323 Gag HIV RNA copies and the “cell-associated unspliced Gag HIV RNA” value ([5]; patient A, second off/on cycle analyzed, off treatment) was 57 Gag HIV RNA copies. The “cell-associated unspliced Gag HIV RNA” value ([5]; patient A, second off/on cycle analyzed, on treatment) was 362 Gag HIV RNA copies, the “cell-associated unspliced Gag HIV RNA” value ([5]; patient B, first off/on cycle analyzed, off treatment) was 504 Gag HIV RNA copies and the “cell-associated unspliced Gag HIV RNA” value ([5]; patient B, first off/on cycle analyzed, on treatment) was 841 Gag HIV RNA copies. The “cell-associated unspliced Gag HIV RNA” value ([5]; patient B, second off/on cycle analyzed, off treatment) was 892 Gag HIV RNA copies, the “cell-associated unspliced Gag HIV RNA” value ([5]; patient B, second off/on cycle analyzed, on treatment) was 1196 Gag HIV RNA copies and the “proviral DNA level” value ([6]; patient A, end of treatment (8 weeks), baseline 46 copies/10^6 CD4+ T cell) was “remained low”. For the same compound, the “proviral DNA level” value ([6]; patient A, first two treatment cycles (4 weeks), 20 mg TIW every other week, baseline 46 copies/10^6 CD4+ T cell, lower limit of quantification 12 copies) was “dropped below detection”, the “proviral DNA level” value ([6]; patient B, after 4 weeks, baseline 173 copies/10^6 CD4+ T cells) was 125 copies/10^6 CD4+ T cell and the “proviral DNA level” value ([6]; patient B, end of treatment (8 weeks), baseline 173 copies/10^6 CD4+ T cells, lower limit of quantification 12 copies) was “undetectable”. For the same compound, the “effect on CD4+ T cell counts in blood” value (CD4+ T cells) was “no immune deterioration” and the maximal plasma concentration [7] was “approximately 60 nM”.
For `CCCC(CCC)C(=O)O` [VPA, valproic acid], the “fold increase in median p24 levels” value ([1]; 0.25 mM) was 1.4 fold, the “fold increase in median p24 levels” value ([1]; 0.5 mM) was 2.8 fold and the “fold increase in median p24 levels” value ([2]; 0.25 mM) was 2.1 fold. For the same compound, the “fold increase in median p24 levels” value ([2]; 0.5 mM) was 7.3 fold and the “patients in whom depletion of the latent viral reservoir was seen” value (latent viral reservoir) was 3 of 4.
With `O=C(/C=C/c1cccc(S(=O)(=O)Nc2ccccc2)c1)NO` [PXD101] the “fold increase in median p24 levels” value ([1]; 125 nM) was 2.4 fold, the “fold increase in median p24 levels” value ([1]; 250 nM) was 7.4 fold and the “fold increase in median p24 levels” value ([2]; 125 nM) was 5.8 fold. The “fold increase in median p24 levels” value ([2]; 250 nM) was 18.3 fold.
With `CCN(CC)Cc1ccc2cc(COC(=O)Nc3ccc(C(=O)NO)cc3)ccc2c1` [ITF2357] the “fold increase in median p24 levels” value ([1]; 125 nM) was 3.2 fold, the “fold increase in median p24 levels” value ([1]; 250 nM) was 9.2 fold and the “fold increase in median p24 levels” value ([2]; 125 nM) was 6.2 fold. For the same compound, the “fold increase in median p24 levels” value ([2]; 250 nM) was 18.5 fold, the “surface expression of CXCR4” value (CXCR4) was “decreased surface expression” and the “surface expression of CCR5” value (CCR5) was “decreased surface expression”.
